Data reported in ChEMBL document CHEMBL1641574 (Bioorg Med Chem, 2011).
The source made the active and inactive calls. The calls are words filed in the database; no cut-off is given here.

Tests used:
Format in all cases: cell-based
[1] = target: T1, Sodium-dependent dopamine transporter (Homo sapiens, UniProt Q01959); assay: Displacement of [3H]WIN-35428 from human DAT stably expressed in mouse N2A cells by scintillation countnig
[2] = target: T1, Sodium-dependent dopamine transporter; assay: Inhibition of [3H]dopamine uptake at human DAT expressed in mouse N2A cells
[3] = target: T1, Sodium-dependent dopamine transporter; assay: Binding affinity to human DAT expressed in UV irradiated mouse N2A cells by photoaffinity labeling assay; settings: tested as the 125I-labelled form

T1 sequence (Q01959 whole entry): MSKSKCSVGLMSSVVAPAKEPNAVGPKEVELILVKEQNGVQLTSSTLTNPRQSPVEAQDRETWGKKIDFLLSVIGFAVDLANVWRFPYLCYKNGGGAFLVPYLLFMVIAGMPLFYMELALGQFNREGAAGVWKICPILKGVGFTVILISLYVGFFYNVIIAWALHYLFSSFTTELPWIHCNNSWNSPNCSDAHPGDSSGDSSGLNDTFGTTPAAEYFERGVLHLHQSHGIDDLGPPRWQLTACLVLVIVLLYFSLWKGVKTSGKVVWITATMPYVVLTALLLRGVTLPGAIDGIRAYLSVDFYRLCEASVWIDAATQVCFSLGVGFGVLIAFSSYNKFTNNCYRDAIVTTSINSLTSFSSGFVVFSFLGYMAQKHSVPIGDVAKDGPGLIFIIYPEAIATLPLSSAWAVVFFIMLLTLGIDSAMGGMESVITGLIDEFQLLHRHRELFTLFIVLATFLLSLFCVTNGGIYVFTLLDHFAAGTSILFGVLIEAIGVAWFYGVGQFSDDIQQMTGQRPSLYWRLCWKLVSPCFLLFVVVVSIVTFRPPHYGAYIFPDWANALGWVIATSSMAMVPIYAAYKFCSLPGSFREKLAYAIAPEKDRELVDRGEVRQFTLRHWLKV

**Q.** With `COC(=O)[C@H](c1cccc(I)c1)[C@H]1CCCCN1Cc1cccc(N=[N+]=[N-])c1` (racemic) as the compound, how does the Ki [1] read?
**A.** The Ki was 2060 nM.

**Q.** And the IC50 [2]?
**A.** The IC50 was 4630 nM.

**Q.** How did the Ki [1] turn out when `COC(=O)[C@H](c1cccc(I)c1)[C@H]1CCCCN1` (racemic) was run?
**A.** The Ki was 4.5 nM.

**Q.** What about the IC50 [2] of the same compound?
**A.** Its IC50 is 14 nM.

**Q.** Which Ki [1] does the source give for `COC(=O)[C@H](c1ccc(I)cc1)[C@H]1CCCCN1Cc1ccccc1N=[N+]=[N-]` (racemic) here?
**A.** Its Ki is 517 nM.

**Q.** And the IC50 [2]?
**A.** Its IC50 is 1230 nM.

**Q.** `COC(=O)[C@H](c1cccc(I)c1)[C@H]1CCCCN1Cc1ccccc1N=[N+]=[N-]` (racemic) was tested. Which Ki [1] did it give?
**A.** The Ki was 1110 nM.

**Q.** And the IC50 [2]?
**A.** Its IC50 is 2700 nM.

**Q.** `COC(=O)[C@H](c1ccc(I)cc1)[C@H]1CCCCN1Cc1ccc(N=[N+]=[N-])cc1` (racemic) was tested. Which Ki [1] did it give?
**A.** The Ki was 363 nM.

**Q.** And the IC50 [2]?
**A.** Its IC50 is 2760 nM.

**Q.** What about the Activity [3] of the same compound?
**A.** The Activity was “Active”.

**Q.** What does the source list for `COC(=O)[C@H](c1ccc(I)cc1)[C@H]1CCCCN1` (racemic)?
**A.** Ki [1]: 14 nM; IC50 [2]: 11 nM

**Q.** What does the source list for `COC(=O)[C@H](c1ccc(I)cc1)[C@H]1CCCCN1Cc1cccc(N=[N+]=[N-])c1` (racemic)?
**A.** Ki [1]: 2750 nM; IC50 [2]: 7970 nM

**Q.** With `COC(=O)[C@H](c1cccc(I)c1)[C@H]1CCCCN1Cc1ccc(N=[N+]=[N-])cc1` (racemic) as the compound, how does the Ki [1] read?
**A.** Its Ki is 658 nM.

**Q.** And the IC50 [2]?
**A.** Its IC50 is 1830 nM.
